Experimental data as given in patent US20220347085A1, “REPELLENT COMPOSITION AND USES” (Université Bourgogne, priority 2019, published 2022).

Assays:
Format in all cases: in vivo
[1] = test system: Drosophila suzukii; experiment: Evaluation of the copulation of Drosophila suzukii; conditions: 10 min observation
Method: 2. Evaluation of the Copulation From the films recorded for studying the courtship behavior of Drosophila suzukii, a percentage of the number of pairs copulating during the 10 minutes of observation was calculated on the basis of the composition in which the filter paper was soaked. A statistical evaluation was carried out, and different tests were performed. In particular, a Kruskal-Wallis test followed by a post-hoc Dunn's Multiple Comparison Test were carried out (GraphPad, Prism6) in order to quantify the influence, on the number of copulating individuals, of the composition in which the paper is soaked and which involves a release of volatile compounds and an odor perceived.

[2] = test system: Drosophila suzukii; experiment: Test in a box (repellent effect), Drosophila suzukii; conditions: 2% in solvent, 1250 cm^3 box
Method: (§1) 2. Tests “in a Box” (Repellent Effect)
(§2) The sensitivity of the drosophilae was evaluated over a period of between 0 minutes and 24 hours, according to the conditions (see results) in closed and transparent boxes of 1250 cm^3.
(§3) An odor source, i.e. a composition comprising butyric acid or propionic acid in paraffin oil, was deposited on a filter paper at the base of a 50 mm petri dish. The petri dish is introduced into a test box and covered with a gauze Securimed M8202 sterile gauze pad) in order to prevent the flies from getting stuck on the oily odorous compound.
(§4) The concentrations used were 2%, 6% or 20% propionic acid.
(§5) A second Petri dish containing 5 to 6 grams of synthetic food used for breeding drosophilae in laboratories was placed in the test box, i.e. 6.5% maize flour, 6.5% (v/v) yeast extract, 1% (v/v) agar-agar, and 3% (v/v) of a 0.1% (v/v) antifungal solution (Tegosept (Apex)) in ethanol at 95%. This latter provides the water and/or the food which the flies needed during the test, and eliminated the possibility of an event due to dehydration of the individuals tested.
(§6) Drosophila melanogaster or suzukii were then introduced by groups into the test box, and moved there freely over time. Their behavior in the presence of a composition as mentioned above was observed and photographed (Apple iPhone 6S).

[3] = test system: Drosophila melanogaster; experiment: Test in a box (repellent effect), Drosophila melanogaster; conditions: 1250 cm^3 box; for courtship and copulation in the box / survival of flies in the box: 24 hours
Method: as §1, §2, §3, §4, §5, §6

[4] = test system: Bactrocera oleae; experiment: Courtship of male Bactrocera oleae towards females, olfactory exposure
Method: 1. […] Insect Behay. 2012 [6] and Menage Cindy, personal communication). Naive males were isolated in tubes, individually, upon emerging from their puparium. The females were selected to be virgin and were stored in tubes, together. These tubes were placed in an inclined manner in incubators, for which a temperature of 25° C. was kept constant. A 12 hour/12 hour day/night cycle was applied. […] Each alveolus was cylindrical, transparent and closed, and of a volume of 5.9 cm^3. FIG. 16 is a schematic representation of an alveolus of the device used. • The papers were then each soaked in […] of a composition of 2%, 4% or 5% propionic acid. A gauze (netting) made it possible to physically isolate the B. ° lea from the odor corresponding to the propionic acid. 2 pairs (one per alveolus) were observed independently. Each pair was made up of one male and one female, each originating from the tubes mentioned above. • The behavior was filmed for 10 minutes, under white light, using a Basler acA1920-155 um USB 3.0 camera. Each film was recorded (Basler Video Recording Software V1.3) and then analyzed. For each concentration of the compositions used, the number of pairs of flies was, respectively, 2, 5, 2, 2, 2 and 6, 6, 4, 4. • A negative control was carried out comprising only the solvent, i.e. paraffin oil, in order to verify the absence of an effect of the solvent on the flies.
A courtship percentage was calculated, and represents the time during which the male courts the female during the 10 minutes of observation (recording). The different steps consist in movement of the wings (rapid “buzzing” and/or vertical vibrations), face movements, lateral movements, “dances” in rapid circles and in the direction of the female (Benelli, J. Insect Beahv 2012 [6] and Ménagé Cindy, personal communication).

[5] = test system: Drosophila melanogaster; experiment: Test of the reversible effect (waking from anesthesia), Drosophila melanogaster; conditions: after 10 minutes at 2%, then placed in empty device
Method: Test of the Reversible Effect.
The devices used were those described for the study of the anesthesia such as described in example 2 above. The application conditions for the propanoic acid or the butyric acid were similar to those of the anesthesia test described in example 2 above. The flies were brought into the presence of 2% propanoic acid or 2% butyric acid for 10 minutes. At the end of 10 minutes of observation of the anesthesia (example 2 above), the flies were removed from the device and placed into another device which was identical but “empty”, i.e. without solvent or odor (odor=2% propanoic acid in the solvent or 2% butyric acid in the solvent, respectively). For each empty device, the total number of flies introduced and observed were 20 males and 30 females previously exposed to 2% propanoic acid and removed from this anesthetizing environment, and 6 males and 7 females previously exposed to 2% butyric acid and removed from this anesthetizing environment.
The flies were considered as woken from the anesthesia when they got back up on their legs and moved in the device.
The time required for waking the flies following their anesthesia was then measured.

Compound | reduction of the proportion of copulation ([1]; 0.1% in solvent) [%] | proportion of copulation ([1]; 0.5% in solvent) | proportion of copulation ([1]; 1% in solvent) | repellent behavior (location of flies relative to odor source) [2] | anesthesia at a distance in the box ([2]; males and females) | courtship and copulation in the box ([3]; 2% in paraffin oil) | survival of flies in the box ([3]; 2% in paraffin oil) | courtship and copulation in the box ([3]; 6% in paraffin oil) | survival of flies in the box ([3]; 6% in paraffin oil) | anesthesia at a distance in the box ([3]; 20% in solvent) | repellent behavior (location of flies relative to odor source) ([3]; 20% in solvent) | courtship of males towards females ([4]; 2% in solvent, flies aged 3 to 6 days, compared with solvent alone) | courtship of males towards females ([4]; 2% in solvent, flies aged 13 to 19 days, compared with solvent alone) | courtship of males towards females ([4]; 4% in solvent, flies aged 3 to 6 days) | courtship of males towards females ([4]; 5% in solvent, flies aged 3 to 6 days) | courtship of males towards females ([4]; 5% in solvent, flies aged 13 to 19 days, compared with solvent alone) | time required to wake up fully from the anesthesia ([5]; females) [min] | time required to wake up fully from the anesthesia ([5]; males) [min] | reduction of the proportion of copulation ([1]; 0.5% in solvent) [%] | time until death in the box ([2]; males and females) [h]
CCC(=O)O [propionic acid] | 58 | zero | zero | remained preferably away from said odor | anesthetized in the hour which followed | court and copulate | still alive after 24 hours | court and copulate | still alive after 24 hours | anesthetized in the test hour | keep away from the filter paper | significantly reduced | significantly reduced | virtually nonexistent | virtually nonexistent | significantly reduced | 9 | 23 |  | 
CCCC(=O)O [butyric acid] | 70.55 | 3.03% | zero | remained away from the filter soaked in butyric acid | anesthetized |  |  |  |  |  |  |  |  |  |  |  | 4.5 | 6 | 83.03 | 20
